Assay results from article PMC7968666, “The pharmacokinetics and drug-drug interactions of ivermectin in Aedes aegypti mosquitoes” (PLoS Pathogens, 2021).

System: Aedes aegypti mosquitoes
Assay: Drug effect on mosquito fecundity (eggs laid after 96 h)
Format: in vivo
Description: The mixtures were rotated at room temperature for 30 min to ensure a uniform drug distribution (Rotator Genie, Scientific Industries, Bohemia, USA). […] Twelve hours later, the tap water was also removed to starve the mosquitoes. […] The mosquitoes were then feeding from blood through the netting and the Parafilm membrane. […] The photoperiod of the climate chamber and the insectary were synchronised. […] The engorged mosquitoes were either directly frozen at -20°C or returned to the climate chamber for certain time periods to assess the PK. […] Blood feeding was done as described above. […] In contrast to the PK experiments, the mosquitoes had unlimited access to water because a moistened oviposition substrate was inserted into the paper cup. Fecundity was defined as the total number of eggs laid after 96 h. […] The filter paper served as the oviposition substrate. The cotton wool was soaked with fresh water and covered by a new filter paper after 48, 72, and 96 h post-treatment. After the assay, the eggs were left to mature for 24 h in the insectary. […] R Foundation for Statistical Computing, http://www.R-project.org, Vienna, Austria). Normality was assessed using the Shapiro-Wilk test. For normally distributed data (mortality, fecundity), group differences were assessed with one-way ANOVA testing, and, where applicable, followed up with Tukey's test. Group differences in fertility (not normally distributed) were evaluated with Kruskal-Wallis one-way analysis of variance, and Wilcoxon rank sum testing as post-hoc.

[1] = 4 days, IVM 0.1, KCZ 5, RIF 10, RTV 10, PBO 10 μg/ml in blood, 50 mosquitoes

CCC(C)C1OC2(CCC1C)CC1CC(CC=C(C)C(OC3CC(OC)C(OC4CC(OC)C(O)C(C)O4)C(C)O3)C(C)C=CC=C3COC4C(O)C(C)=CC(C(=O)O1)C34O)O2 (stereo not shown) [ivermectin]
Mosquito fecundity, Batch 1, mg eggs (4 days) [1]: 18.22 mg eggs | Mosquito fecundity, Batch 2, mg eggs (4 days) [1]: 8.65 mg eggs | Mosquito fecundity, Batch 3, mg eggs (4 days) [1]: 16.69 mg eggs | Effect on number of mosquito eggs (fecundity) compared to blank blood (four days, IVM 0.1, RTV 10, PBO 10 μg/ml in blood): reduced the number of mosquito eggs
